Laboratory results taken from US20260041683A1, “Compounds with Anti-Acinetobacter Baumannii Activity” (University of Kentucky Research Foundation, priority 2022, published 2026).
Values after ≈ are worked out from the molar mass of the structure shown.

Assays:
Assay in all cases: MIC determination
Format in all cases: cell-based
[1] = system: Ab strain #276 (CDC and FDA AR Bank); conditions: Acinetobacter baumannii; Ab AR Bank #276
Procedure: (§1) All bacterial strains listed above were stored at −80° C. All strains were streaked on Mueller-Hinton (MH) plates and allowed to grow at 37° C. overnight. Enough colonies were scraped from the plate and suspended in MH broth with vortexing to reach an attenuance at 600 nm (OD600) of ˜0.5. The resulting culture was diluted 1:1000 and added to the prepared serially doubly diluted compound solutions in 96-well plates. For M. smegmatis, a 1:100 dilution of the bacteria was done in MH. All MIC values were determined using 96-well plates with low evaporation seals at least in duplicate. For each row, one well was reserved for sterile control (which consisted of 200 μL of MH medium) and another well was reserved for growth control (which consisted of 100 μL of MH medium seeded with 100 μL of bacterial culture).
(§2) Then all 46 compounds were tested against a broad panel of all 41 Ab strains from the CDC and FDA Antibiotic Resistance (AR) Isolate Bank (Table 2; data shown for 2 representative compounds), which were all highly multidrug-resistant strains, including those resistant to colistin. […] The activity of the monohydrazides was not dependent on the extent (number of resistance mutations) or severity (antibiotic MIC) of resistance. All conclusions made from Table 1 remained valid for all compounds against these 41 additional Ab strains. […] This mechanism of action will be elucidated in the proposed studies.

[2] = system: Ab strain #278 (CDC and FDA AR Bank); conditions: Acinetobacter baumannii; Ab AR Bank #278
Procedure: as §1, §2

[3] = system: Ab strain #273 (CDC and FDA AR Bank); conditions: Acinetobacter baumannii; Ab AR Bank #273
Procedure: as §1, §2

[4] = system: Ab strain #286 (CDC and FDA AR Bank); conditions: Acinetobacter baumannii; Ab AR Bank #286
Procedure: as §1, §2

[5] = system: Ab strain #293 (CDC and FDA AR Bank); conditions: Acinetobacter baumannii; Ab AR Bank #293
Procedure: as §1, §2

[6] = system: Ab strain #298 (CDC and FDA AR Bank); conditions: Acinetobacter baumannii; Ab AR Bank #298
Procedure: as §1, §2

[7] = system: Ab strain #294 (CDC and FDA AR Bank); conditions: Acinetobacter baumannii; Ab AR Bank #294
Procedure: as §1, §2

[8] = system: Ab strain #277 (CDC and FDA AR Bank); conditions: Acinetobacter baumannii; Ab AR Bank #277
Procedure: as §1, §2

[9] = system: Ab strain #304 (CDC and FDA AR Bank); conditions: Acinetobacter baumannii; Ab AR Bank #304
Procedure: as §1, §2

[10] = system: Ab strain #280 (CDC and FDA AR Bank); conditions: Acinetobacter baumannii; Ab AR Bank #280
Procedure: as §1, §2

[11] = system: Ab strain #274 (CDC and FDA AR Bank); conditions: Acinetobacter baumannii; Ab AR Bank #274
Procedure: as §1, §2

[12] = system: Ab strain #283 (CDC and FDA AR Bank); conditions: Acinetobacter baumannii; Ab AR Bank #283
Procedure: as §1, §2

[13] = system: Ab strain #310 (CDC and FDA AR Bank); conditions: Acinetobacter baumannii; Ab AR Bank #310
Procedure: as §1, §2

[14] = system: Ab strain #309 (CDC and FDA AR Bank); conditions: Acinetobacter baumannii; Ab AR Bank #309
Procedure: as §1, §2

[15] = system: Ab strain #288 (CDC and FDA AR Bank); conditions: Acinetobacter baumannii; Ab AR Bank #288
Procedure: as §1, §2

[16] = system: Ab strain #285 (CDC and FDA AR Bank); conditions: Acinetobacter baumannii; Ab AR Bank #285
Procedure: as §1, §2

[17] = system: Ab strain #299 (CDC and FDA AR Bank); conditions: Acinetobacter baumannii; Ab AR Bank #299
Procedure: as §1, §2

[18] = system: Ab strain #308 (CDC and FDA AR Bank); conditions: Acinetobacter baumannii; Ab AR Bank #308
Procedure: as §1, §2

[19] = system: Ab strain #275 (CDC and FDA AR Bank); conditions: Acinetobacter baumannii; Ab AR Bank #275
Procedure: as §1, §2

[20] = system: Ab strain #292 (CDC and FDA AR Bank); conditions: Acinetobacter baumannii; Ab AR Bank #292
Procedure: as §1, §2

[21] = system: Ab strain #303 (CDC and FDA AR Bank); conditions: Acinetobacter baumannii; Ab AR Bank #303
Procedure: as §1, §2

[22] = system: Ab strain #287 (CDC and FDA AR Bank); conditions: Acinetobacter baumannii; Ab AR Bank #287
Procedure: as §1, §2

[23] = system: Ab strain #290 (CDC and FDA AR Bank); conditions: Acinetobacter baumannii; Ab AR Bank #290
Procedure: as §1, §2

[24] = system: Ab strain #312 (CDC and FDA AR Bank); conditions: Acinetobacter baumannii; Ab AR Bank #312
Procedure: as §1, §2

[25] = system: Ab strain #281 (CDC and FDA AR Bank); conditions: Acinetobacter baumannii; Ab AR Bank #281
Procedure: as §1, §2

[26] = system: Ab strain #291 (CDC and FDA AR Bank); conditions: Acinetobacter baumannii; Ab AR Bank #291
Procedure: as §1, §2

[27] = system: Ab strain #313 (CDC and FDA AR Bank); conditions: Acinetobacter baumannii; Ab AR Bank #313
Procedure: as §1, §2

SMILES	MIC [1] [µg/mL]	MIC [2] [µg/mL]	MIC [3] [µg/mL]	MIC [4] [µg/mL]	MIC [5] [µg/mL]	MIC [6] [µg/mL]	MIC [7] [µg/mL]	MIC [8] [µg/mL]	MIC [9] [µg/mL]	MIC [10] [µg/mL]	MIC [11] [µg/mL]	MIC [12] [µg/mL]	MIC [13] [µg/mL]	MIC [14] [µg/mL]	MIC [15] [µg/mL]	MIC [16] [µg/mL]	MIC [17] [µg/mL]	MIC [18] [µg/mL]	MIC [19] [µg/mL]	MIC [20] [µg/mL]	also measured
O=C(NNc1ccc(Cl)cc1)c1ccc(F)cn1 [Compound 3e]	0.03 (≈ 0.113 µM)	0.25 (≈ 0.941 µM)	0.5 (≈ 1.88 µM)	0.06 (≈ 0.226 µM)	0.13 (≈ 0.489 µM)	0.25 (≈ 0.941 µM)	0.25 (≈ 0.941 µM)	0.06 (≈ 0.226 µM)	0.5 (≈ 1.88 µM)	0.5 (≈ 1.88 µM)	0.5 (≈ 1.88 µM)	0.5 (≈ 1.88 µM)	0.25 (≈ 0.941 µM)	0.25 (≈ 0.941 µM)	0.25 (≈ 0.941 µM)	0.13 (≈ 0.489 µM)	0.13 (≈ 0.489 µM)	0.13 (≈ 0.489 µM)	0.25 (≈ 0.941 µM)	0.25 (≈ 0.941 µM)	MIC [21]: 0.13 µg/mL (≈ 0.489 µM); MIC [22]: 0.13 µg/mL (≈ 0.489 µM); MIC [23]: 0.125 µg/mL (≈ 0.47 µM); MIC [24]: 0.5 µg/mL (≈ 1.88 µM); MIC [25]: 0.5 µg/mL (≈ 1.88 µM); MIC [26]: 0.06 µg/mL (≈ 0.226 µM); MIC [27]: 0.25 µg/mL (≈ 0.941 µM)
O=C(NNc1cccc(F)c1)c1cnccn1 [Compound 9a]	0.5 (≈ 2.15 µM)	1 (≈ 4.31 µM)	1 (≈ 4.31 µM)	1 (≈ 4.31 µM)	0.25 (≈ 1.08 µM)	0.5 (≈ 2.15 µM)	≤ 0.13	1 (≈ 4.31 µM)	≤ 0.13	1 (≈ 4.31 µM)	1 (≈ 4.31 µM)	0.25 (≈ 1.08 µM)	0.5 (≈ 2.15 µM)	0.5 (≈ 2.15 µM)	1 (≈ 4.31 µM)	0.5 (≈ 2.15 µM)	0.25 (≈ 1.08 µM)	0.25 (≈ 1.08 µM)	0.5 (≈ 2.15 µM)	0.25 (≈ 1.08 µM)	MIC [21]: 0.25 µg/mL (≈ 1.08 µM); MIC [22]: 0.5 µg/mL (≈ 2.15 µM); MIC [23]: 1 µg/mL (≈ 4.31 µM); MIC [24]: 0.5 µg/mL (≈ 2.15 µM); MIC [25]: 0.5 µg/mL (≈ 2.15 µM); MIC [26]: 0.25 µg/mL (≈ 1.08 µM); MIC [27]: 0.25 µg/mL (≈ 1.08 µM)
